# Measured values taken from patent publication US10189782B2, “Derivatives of indole for the treatment of cancer, viral infections and lung diseases” (BIOKINESIS, priority 2012, dated 2019).
# pIC50: −log10 of the molar value. Where a name gives a salt, the structure may show the parent alone.
# Molecular target: T1, Human recombinant MKlp2 motor domain1-519, His tagged (Homo sapiens, UniProt O95235)
# T1 construct: Human recombinant MKlp2 motor domain1-519, His tagged; His; purchased Cytoskeleton MP05
# T1 sequence (O95235 1-519): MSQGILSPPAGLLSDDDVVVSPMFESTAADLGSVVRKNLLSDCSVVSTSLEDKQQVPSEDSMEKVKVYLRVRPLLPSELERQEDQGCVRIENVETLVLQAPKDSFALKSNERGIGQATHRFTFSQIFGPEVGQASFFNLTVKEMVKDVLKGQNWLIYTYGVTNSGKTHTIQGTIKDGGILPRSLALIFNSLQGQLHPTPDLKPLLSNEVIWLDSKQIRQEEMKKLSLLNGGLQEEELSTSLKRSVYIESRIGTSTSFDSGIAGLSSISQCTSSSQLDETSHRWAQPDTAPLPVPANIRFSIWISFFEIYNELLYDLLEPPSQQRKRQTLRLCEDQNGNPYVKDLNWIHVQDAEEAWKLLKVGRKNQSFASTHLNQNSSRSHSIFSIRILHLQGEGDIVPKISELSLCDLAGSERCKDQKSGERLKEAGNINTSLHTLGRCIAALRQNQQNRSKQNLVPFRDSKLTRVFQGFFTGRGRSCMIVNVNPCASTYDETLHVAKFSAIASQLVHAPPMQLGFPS
# Test: Microtubule stimulated ATPase activity of the MKlp2 motor domain (Kinesin ELIPA Assay Kit)
# Type: biochemical
# Conditions: MKIp2 IC50 (μM), Table 3, 22° C.
# Experimental: Evaluation of Inhibitory Effects on the Microtubule Stimulated ATPase Activity of the MKlp2 Motor Domain.
# MKlp2 ATPase activity was measured by monitoring real time free phosphate generation using the Kinesin ELIPA Assay Kit. The assay is based upon an absorbance shift (330 nm-360 nm) that occurs when 2-amino-6-mercapto-7-methylpurine ribonucleoside (MESG) is catalytically converted to 2-amino-6-mercapto-7-methylpurine in the presence of inorganic phosphate (Pi). One molecule of Pi will yield one molecule of 2-amino-6-mercapto-7-methylpurine in an essentially irreversible reaction.
# All experiments were performed at 22° C.
# Condition 1, compound preparation.
# The compounds were dissolved in DMSO at 30× the maximum concentration to be tested. […] DMSO solutions were pipetted directly into each well.
# Condition 2, reaction's “motor mix”.
# The following were mixed sequentially in the specified order at RT to obtain the “motor mix”.
# 20 mL: 15 mM Pipes-NaOH pH 7.0, 10 mM MgCl2, 30 μM Tx (Buffer 1).
# 10 mL: 5× MSEG (ELIPA 1 reagent, Cat. # BK051).
# 10 mL: 2.5 mg/mL porcine brain microtubules (3×10 mg Cat. # MT002-XL resuspended in 12 mL of Buffer 1).
# 0.5 mL: 100×PNP (ELIPA 2 reagent, cat. # BK051).
# Condition 3, reaction initiation.
# The motor mix was pipetted into each well to obtain 80% of total volume. The reaction was initiated by adding a 20% of total volume of 5 mM ATP into each well.
# The reactions were measured in a SpectraMax M2 (Molecular Devices) set in kinetic mode and 360 nm absorbance wavelength. The start protocol was 5 second rapid circular mixing, 21 readings, 30 seconds apart.
row,SMILES,IC50 [µM]
1,"COc1ccc2[nH]cc(C(C#N)=Cc3cccnc3)c2c1 [W02010/150211-Example 4, reference compound]",4.2

# Same assay, conditions: Table 3, 22° C., read-out: MKIp2 IC50
row,pIC50,SMILES
1,6.52,"CCOc1ccncc1/C=C(\C#N)c1c[nH]c2ccc(OC)cc12 [Example 2, (Z)-3-(4-ethoxypyridin-3-yl)-2-(5-methoxy-1H-indol-3-yl)acrylonitrile]"
2,6.30,"CN(C)c1ccncc1/C=C(\C#N)c1c[nH]c2ccc(Cl)cc12 [Example 6, (Z)-2-(5-chloro-1H-indol-3-yl)-3-(4-(dimethylamino)pyridin-3-yl)acrylonitrile]"
3,6.10,"CN(C)c1ccncc1/C=C(\C#N)c1c[nH]c2ccc(Cl)cc12 [Example 7, (Z)-2-(5-chloro-1H-indol-3-yl)-3-(4-(dimethylamino)pyridin-3-yl)acrylonitrile, Hydrochloride]"
4,6.30,"N#C/C(=C\c1cnccc1Oc1ccccc1)c1c[nH]c2ccc(Br)cc12 [Example 11, (Z)-2-(5-bromo-1H-indol-3-yl)-3-(4-phenoxypyridin-3-yl)acrylonitrile]"
5,7.00,"CCOc1ccncc1/C=C(\C#N)c1c[nH]c2ccc(Br)cc12 [Example 13, (Z)-2-(5-bromo-1H-indol-3-yl)-3-(4-ethoxypyridin-3-yl)acrylonitrile]"
6,6.70,"CC(C)Oc1ccncc1/C=C(\C#N)c1c[nH]c2ccc(Br)cc12 [Example 14, (Z)-2-(5-bromo-1H-indol-3-yl)-3-(4-isopropoxypyridin-3-yl)acrylonitrile]"
7,6.52,"CCSc1ccncc1/C=C(\C#N)c1c[nH]c2ccc(Br)cc12 [Example 16, (Z)-2-(5-bromo-1H-indol-3-yl)-3-(4-(ethylthio)pyridin-3-yl)acrylonitrile]"
8,6.52,"N#C/C(=C\c1cnccc1-c1cccc(Br)c1)c1c[nH]c2ccc(Br)cc12 [Example 17, (Z)-2-(5-bromo-1H-indol-3-yl)-3-(4-(3-bromophenyl)pyridin-3-yl)acrylonitrile]"
9,6.70,"N#C/C(=C\c1cnccc1SCc1ccccc1)c1c[nH]c2ccc(Br)cc12 [Example 20, (Z)-3-(4-(benzylthio)pyridin-3-yl)-2-(5-bromo-1H-indol-3-yl)acrylonitrile]"
10,6.40,"COc1ccc(Sc2ccncc2/C=C(\C#N)c2c[nH]c3ccc(Br)cc23)cc1OC [Example 21, (Z)-2-(5-bromo-1H-indol-3-yl)-3-(4-((3,4-dimethoxyphenyl)thio)pyridin-3-yl)acrylonitrile]"
11,7.05,"N#C/C(=C\c1cnccc1Oc1ccc(F)cc1)c1c[nH]c2ccc(Br)cc12 [Example 22, (Z)-2-(5-bromo-1H-indol-3-yl)-3-(4-(4-fluorophenoxy)pyridin-3-yl)acrylonitrile]"
12,7.22,"N#C/C(=C\c1cnccc1-n1cncn1)c1c[nH]c2ccc(Br)cc12 [Example 32, (Z)-3-(4-(1H-1,2,4-triazol-1-yl)pyridin-3-yl)-2-(5-bromo-1H-indol-3-yl)acrylonitrile]"
13,> 7.15,"COc1ccncc1/C=C(\C#N)c1c[nH]c2ccc(Cl)cc12 [Example 35, (Z)-2-(5-chloro-1H-indol-3-yl)-3-(4-methoxypyridin-3-yl)acrylonitrile, Hydrochloride]"
14,6.52,CN(C)CCSc1ccncc1/C=C(\C#N)c1c[nH]c2ccc(Br)cc12 [Example 36]
15,6.70,"COc1ccncc1/C=C(\C#N)c1c[nH]c2cc(Br)ccc12 [Example 45, (Z)-2-(6-bromo-1H-indol-3-yl)-3-(4-methoxypyridin-3-yl)acrylonitrile]"
16,6.92,"COc1ccncc1/C=C(\C#N)c1c[nH]c2cc(F)ccc12 [Example 46, (Z)-2-(6-fluoro-1H-indol-3-yl)-3-(4-methoxypyridin-3-yl)acrylonitrile]"
17,6.70,"COc1ccncc1/C=C(\C#N)c1c[nH]c2cc(Cl)ccc12 [Example 47, (Z)-2-(6-chloro-1H-indol-3-yl)-3-(4-methoxypyridin-3-yl)acrylonitrile]"
18,6.24,"COC(=O)CC(=O)n1cc(/C(C#N)=C/c2cnccc2OC)c2cc(Br)ccc21 [Example 59, (Z)-methyl-3-(5-bromo-3-(1-cyano-2-(4-methoxypyridin-3-yl)vinyl)-1H-indol-1-yl)-3-oxopropanoate]"
19,6.46,"COc1ccncc1/C=C(\C#N)c1cn(C(=O)OCCN2CCN(C)CC2)c2ccc(Br)cc12 [Example 62, (Z)-2-(4-methylpiperazin-1-yl)ethyl 5-bromo-3-(1-cyano-2-(4-methoxypyridin-3-yl)vinyl)-1H-indole-1-carboxylate]"

# The remaining lines, values behind:
row,SMILES,pIC50
1,"N#C/C(=C\c1cnccc1Oc1ccccc1)c1c[nH]c2ccc(Cl)cc12 [Example 10, (Z)-2-(5-chloro-1H-indol-3-yl)-3-(4-phenoxypyridin-3-yl)acrylonitrile]",6.52
2,"N#C/C(=C\c1cnccc1-c1cccc(Br)c1)c1c[nH]c2ccc(Cl)cc12 [Example 18, (Z)-3-(4-(3-bromophenyl)pyridin-3-yl)-2-(5-chloro-1H-indol-3-yl)acrylonitrile]",6.52
3,"N#C/C(=C\c1cnccc1Sc1ccccc1)c1c[nH]c2ccc(Br)cc12 [Example 19, (Z)-2-(5-bromo-1H-indol-3-yl)-3-(4-(phenylthio)pyridin-3-yl)acrylonitrile]",6.52
4,"N#C/C(=C\c1cnccc1Oc1ccc(F)cc1)c1c[nH]c2ccc(Cl)cc12 [Example 23, (Z)-2-(5-chloro-1H-indol-3-yl)-3-(4-(4-fluorophenoxy)pyridin-3-yl)acrylonitrile]",7.05
5,"N#C/C(=C\c1cnccc1-c1ccc(C(F)(F)F)cc1)c1c[nH]c2ccc(Br)cc12 [Example 25, (Z)-2-(5-bromo-1H-indol-3-yl)-3-(4-(4-(trifluoromethyl)phenyl)pyridin-3-yl)acrylonitrile]",6.40
6,"N#C/C(=C\c1cnccc1-c1ccc(C(F)(F)F)cc1)c1c[nH]c2ccc(Cl)cc12 [Example 26, (Z)-2-(5-chloro-1H-indol-3-yl)-3-(4-(4-(trifluoromethyl)phenyl)pyridin-3-yl)acrylonitrile]",6.30
7,"N#C/C(=C\c1cnccc1Sc1ccc(F)cc1)c1c[nH]c2ccc(Cl)cc12 [Example 27, (Z)-2-(5-chloro-1H-indol-3-yl)-3-(4-((4-fluorophenyl)thio)pyridin-3-yl)acrylonitrile]",6.52
8,"N#C/C(=C\c1cnccc1Sc1ccc(F)cc1)c1c[nH]c2ccc(Br)cc12 [Example 28, (Z)-2-(5-bromo-1H-indol-3-yl)-3-(4-((4-fluorophenyl)thio)pyridin-3-yl)acrylonitrile]",7.05
9,"N#C/C(=C\c1cnccc1Sc1ccccn1)c1c[nH]c2ccc(Cl)cc12 [Example 30, (Z)-2-(5-chloro-1H-indol-3-yl)-3-(4-(pyridin-2-ylthio)pyridin-3-yl)acrylonitrile]",6.52
10,"N#C/C(=C\c1cnccc1Sc1ccccn1)c1c[nH]c2ccc(Br)cc12 [Example 31, (Z)-2-(5-bromo-1H-indol-3-yl)-3-(4-(pyridin-2-ylthio)pyridin-3-yl)acrylonitrile]",6.40
11,"N#C/C(=C\c1cnccc1-n1cncn1)c1c[nH]c2ccc(Cl)cc12 [Example 33, (Z)-3-(4-(1H-1,2,4-triazol-1-yl)pyridin-3-yl)-2-(5-chloro-1H-indol-3-yl)acrylonitrile]",7.00
12,"N#C/C(=C\c1cc(C#N)ccc1Oc1ccc(F)cc1)c1c[nH]c2ccc(Br)cc12 [Example 37, (Z)-3-(2-(5-bromo-1H-indol-3-yl)-2-cyanovinyl)-4-(4-fluorophenoxy)benzonitrile]",6.05
13,"COc1ccc(C#N)cc1/C=C(\C#N)c1c[nH]c2ccc(Cl)cc12 [Example 40, (Z)-3-(2-(5-chloro-1H-indol-3-yl)-2-cyanovinyl)-4-methoxybenzonitrile]",6.70
14,"CN(C)c1ccc(C#N)cc1/C=C(\C#N)c1c[nH]c2ccc(Cl)cc12 [Example 41, (Z)-3-(2-(5-chloro-1H-indol-3-yl)-2-cyanovinyl)-4-(dimethylamino)benzonitrile]",6.40
15,"CCSc1ccc(C#N)cc1/C=C(\C#N)c1c[nH]c2ccc(Cl)cc12 [Example 42, (Z)-3-(2-(5-chloro-1H-indol-3-yl)-2-cyanovinyl)-4-(ethylthio)benzonitrile]",6.22
